The values below come from publication PMC6127852 (Journal of Enzyme Inhibition and Medicinal Chemistry, 2018).

One data set concerns S. aureus ATCC 25923. Nature of the data set: Broth microdilution MIC, S. aureus ATCC 25923. Type of data set: cell-based. To be noted: Staphylococcus aureus, ATCC25923; Table S2. A digest of the protocol:
(§1)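 Cation (Ca2+/Mg2+)-adjusted Mueller–Hinton broth, standard CLSI broth microdilution. MIC determined per strain, tested in triplicate.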
Background: Dilution methods test growth across graded concentrations, often in twofold steps.

In data set [1] the test system is polyA-polyU. Nature of the data set: Thermal melting (ΔTm) of polyA-polyU. Type of data set: binding. In short, it runs like this:
(§2)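 UV melting monitored at 260 nm in 1 cm cuvettes, ligand absorbance subtracted and normalised; ΔTm = Tm(complex) − Tm(free nucleic acid), mean of at least two runs, error ±0.5 °C. Compound tested at r = 0.1, 0.3, 0.5 and 0.7 eq ([compound]/[polynucleotide]) with ctDNA and polyA-polyU.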

A further data set deals with S. aureus MRSA. Nature of the data set: Broth microdilution MIC, MRSA clinical strain. Type of data set: cell-based. The note with it: Staphylococcus aureus, antibiotic-resistant clinical strain. A digest of the protocol: (§3)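 MICs were set by CLSI broth microdilution in cation (Ca2+, Mg2+)-adjusted Mueller–Hinton broth, in triplicate. Panel: S. aureus ATCC 25923, MRSA, MSSA, E. faecalis, VRE E. faecium, E. coli ATCC 25925, P. aeruginosa ATCC 27853, A. baumannii ATCC 19606 and ESBL K. pneumoniae ATCC 27736.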

For another data set, the system named is K. pneumonia ATCC 700803. Nature of the data set: Broth microdilution MIC, K. pneumoniae ATCC 700803. The note with it: Klebsiella pneumoniae, ATCC700803; Table S2. Type of data set: cell-based. A digest of the protocol:
as §1

A further data set deals with S. aureus MSSA. Nature of the data set: Broth microdilution MIC, MSSA clinical strain. The data set is classed as cell-based. The note with it: Staphylococcus aureus. In short, it runs like this: as §3
For data set [2], the system named is bloodstream form T. brucei (strain 221). Nature of the data set: Anti-trypanosomal screening, resazurin. To be noted: Trypanosoma brucei, mean of triplicate ± SEM. Type of data set: cell-based. In short, it runs like this:
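Parasites grown in modified Iscove's medium with compound in triplicate; resazurin added at 48 h and plates read after a further 16 h.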

Another data set deals with A. baumannii ATCC 19606. Nature of the data set: Broth microdilution MIC, A. baumannii ATCC 19606. Type of data set: cell-based. To be noted: Acinetobacter baumannii, ATCC19606; Table S2. A digest of the protocol:
as §1

The subject of the next data set is E. faecium VRE. Nature of the data set: Broth microdilution MIC, VRE clinical strain. To be noted: Enterococcus faecium. Type of data set: cell-based. A digest of the protocol: as §3
In data set [3] the test system is L6 cells (a rat myoblast line). Nature of the data set: Cytotoxicity against mammalian cells, resazurin. The data set is classed as cell-based. To be noted: L6, 144 h, 6 d incubation. As to the method: Cytotoxicity against mammalian cells was also assessed using microtitre plates. Briefly, L6 cells (a rat myoblast line) were seeded at 1 × 10^4 ml^−1 in 200 µl of growth medium containing different compound concentrations. The plates were then incubated for 6 d at 37 °C and 20 µl resazurin added to each well. After a further 8 h incubation, the fluorescence was determined using a Spectramax plate reader, as outlined above.

The subject of data set [4] is polyA-polyU (RNA, polymer) A/U. Nature of the data set: UV melting at 260 nm. To be noted: PBS, I = 0.05 M, cations not specified, pH 7, r = 0.3 [compound]/[polynucleotide], error ±0.5, biphasic, second midpoint 6.38, per base.
A further data set deals with P. aeruginosa ATCC 27853. Nature of the data set: Broth microdilution MIC, P. aeruginosa ATCC 27853. The data set is classed as cell-based. The note with it: Pseudomonas aeruginosa, ATCC27853; Table S2. In short, it runs like this: as §1
A further data set concerns E. faecalis ATCC 29212. Nature of the data set: Broth microdilution MIC, E. faecalis ATCC 29212. The data set is classed as cell-based. To be noted: Enterococcus faecalis, ATCC29212; Table S2. A digest of the protocol: as §1
The subject of a further data set is calf thymus ctDNA. Nature of the data set: UV–Vis titration with ctDNA (Scatchard). The data set is classed as binding. A digest of the protocol:
(§4)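 Polynucleotides titrated into compound at 1.48 × 10^−5 mol dm^−3 in PBS (I = 0.05 mol dm^−3, pH 7.0), with UV–Vis spectra in 1 cm quartz cells; ctDNA sonicated and filtered, concentration as nucleobases. Ks and n from Scatchard analysis, in some cases only from data at r ≥ 0.1.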

For data set [5], the system named is polyG-polyC (polyC-polyG) (RNA, polymer) G/C. Nature of the data set: UV-Vis titration, Scatchard. To be noted: PBS, I = 0.05 M (Table 1 says I = 0.015 M), cations not specified, I = 0.015 M (Methods: 0.05 M).
Data set [6] relates to polyA-polyU (RNA, polymer) A/U. Nature of the data set: UV-Vis titration, Scatchard. The note with it: PBS.
The next data set relates to E. coli ATCC 25925. Nature of the data set: Broth microdilution MIC, E. coli ATCC 25925. The data set is classed as cell-based. The note with it: Escherichia coli, ATCC25925; Table S2. In short, it runs like this: as §1
Data set [7] has as its system polyA-polyU. Nature of the data set: UV–Vis titration with polyA-polyU (Scatchard). The data set is classed as binding. In short, it runs like this:
as §4

The next data set has as its system ctDNA. Nature of the data set: Thermal melting (ΔTm) of ctDNA. The data set is classed as binding, calf. To be noted: PBS, pH 7. In short, it runs like this:
as §2

A further data set concerns polyC-polyG. Nature of the data set: UV–Vis titration with polyC-polyG (Scatchard). The data set is classed as binding. The note with it: PBS, pH 7; for log Ks, polyC-polyG: binding constant, Scatchard. A digest of the protocol:
as §4

In data set [8] the test system is Gram-positive and Gram-negative bacteria. Nature of the data set: Anti-microbial activity overall (all tested bacteria). Type of data set: cell-based. The note with it: summary over tested strains; read-out: MIC, anti-microbial activities overall. As for the experimental part: The compounds were evaluated for their in vitro anti-bacterial activity against Gram-positive bacteria: S. aureus (ATCC 25923), MRSA, methicillin-sensitive S. aureus (MSSA), E. faecalis, vancomycin-resistant E. faecium (VREF), and Gram-negative bacteria: E. coli (ATCC 25925), P. aeruginosa (ATCC 27853), A. baumannii (ATCC 19606) and ESBL-producing K. pneumoniae (ATCC 27736). Standard broth microdilution method as recommended in guidelines of Clinical and Laboratory Standards Institute[61] ^, [65] ^, [66] was applied and the minimum inhibitory concentration (MIC) of compounds was tested. In short, testing was performed in U-bottomed 96-well sterile plastic microdilution trays (Falcon 3077, Becton Dickinson Labware, Franklin Lakes, NJ) in cation (Ca^2+ and Mg^2+) adjusted Mueller–Hinton broth medium (Becton Dickinson and Co., Cockeysville, MD). All testings were performed in triplicate.

Setting [9] is: UV–Vis titration, PBS, pH 7, calculated by Scatchard equation.

In brackets after ≈: the same amount, converted by molar mass.

In general, MIC refers to the least concentration at which growth counts as inhibited. Broadly, the IC50 is the concentration at which inhibition is half-maximal. A lower IC50 goes with inhibition by little substance. Usually IC90 stands for the concentration needed for an effect of 90%. Read a low IC90 as greater potency. In general, ΔTm refers to the change in melting temperature against a reference sample. By melting point is commonly meant the temperature of the solid-liquid transition. The compound `COc1ccc(-n2cc(COc3ccc(-c4nc5cc(C(=N)NC(C)C)ccc5[nH]4)cc3)nn2)cc1.Cl.Cl` [Compound 8b, N-isopropyl-2–(4-((1–(4-methoxyphenyl)-1H-1,2,3-triazol-4-yl)methoxy)phenyl)-1H-benz[d]imidazole-5-carboximidamide dihydrochloride] displayed a melting point of 188 to 191 °C. In the data set on S. aureus ATCC 25923, the MIC is 128 µg/mL. Further, the “ΔTm, polyA-polyU, r = 0.1” value with polyA-polyU [1] (r = 0.1, PBS, pH 7) worked out at 1.17 °C. The “ΔTm, polyA-polyU, r = 0.3” value with polyA-polyU [1] (r = 0.3, first melting midpoint) came to 1.32 °C. Also, the “ΔTm, polyA-polyU, r = 0.3, second melting midpoint” value in the data set with polyA-polyU [1] (r = 0.3, footnote c: biphasic melting curve) was 6.38^c °C. Moreover, the “ΔTm, polyA-polyU, r = 0.5” value in the data set with polyA-polyU [1] (r = 0.5, first melting midpoint) was 1.56 °C. Further, the “ΔTm, polyA-polyU, r = 0.5, second melting midpoint” value in the data set with polyA-polyU [1] (r = 0.5, footnote c: biphasic melting curve) was 8.49^c °C. In addition, in the data set on S. aureus MRSA, the MIC worked out at 16 µg/mL. For the same compound, the MIC against K. pneumonia ATCC 700803 was > 256 µg/mL. Moreover, 64 µg/mL was the least that counted as inhibitory against S. aureus MSSA (MIC). In data set [2], this compound came in with a concentration for half-maximal inhibition (IC50) of 1.1 ± 0.3 µM and a 90% effect concentration (IC90) of 3.5 ± 0.2 µM. Further, the MIC against A. baumannii ATCC 19606 is > 256 µg/mL. In the data set with E. faecium VRE, this compound came in with an MIC of 128 µg/mL. Further, the IC50 in data set [3] was > 300 µM. Moreover, the ΔTm in [4] came to 1.32 °C. In the data set on P. aeruginosa ATCC 27853, the MIC is > 256 µg/mL. Further, in the data set on E. faecalis ATCC 29212, the MIC worked out at 64 µg/mL. Also, the “Hypochromic effect H/%, ctDNA” value in the data set on calf thymus ctDNA (setting [9]) is reported as 29.7%. In addition, in the data set on calf thymus ctDNA (footnote f: mixed binding mode, calculated in range r ≥ 0.1), the “log Ks, ctDNA (range r ≥ 0.1)” value is on record as 6.06. Moreover, the “log Ks” value in data set [5] (pH 7, per base) is 6.39. Also, the “log Ks” value in data set [6] (I = 0.05 M (Table 1 says I = 0.015 M), cations not specified, I = 0.015 M (Methods: 0.05 M), pH 7, per base) stood at 5.27. The compound further had an MIC in the data set with E. coli ATCC 25925 of 256 µg/mL. In the data set with polyA-polyU [7] (setting [9]), the “Hypochromic effect H/%, polyA-polyU” value is 57.8%. Further, on polyA-polyU [7] (binding constant, Scatchard, PBS, pH 7), the “log Ks, polyA-polyU” value is listed as 5.27. In the data set on ctDNA (r = 0.5), the “ΔTm, ctDNA, r = 0.5” value amounted to 3.96 °C. For the same compound, in the data set with ctDNA (r = 0.7), the “ΔTm, ctDNA, r = 0.7” value was 4.47 °C. For the same compound, the “ΔTm, ctDNA, r = 0.3” value in the data set on ctDNA (r = [compound]/[polynucleotide] 0.3, error ±0.5 °C) came out at 4.03 °C. Further, the “Hypochromic effect H/%, polyC-polyG” value in the data set with polyC-polyG (UV–Vis titration, calculated by Scatchard equation) is listed as 5.05%. Also, the “log Ks, polyC-polyG” value on polyC-polyG was found to be 6.39.
For `c1ccc(-n2cc(COc3ccc(-c4nc5cc(C6=NCCN6)ccc5[nH]4)cc3)nn2)cc1` [Compound 9a], the MIC against S. aureus ATCC 25923 is 128 µg/mL (≈ 294 µM); against S. aureus MRSA, 128 µg/mL (≈ 294 µM); with K. pneumonia ATCC 700803, > 256 µg/mL; against S. aureus MSSA, 128 µg/mL (≈ 294 µM); in [8], ≥ 128 µg/mL; against A. baumannii ATCC 19606 it was > 256 µg/mL. The MIC in the data set with E. faecium VRE was 128 µg/mL (≈ 294 µM); against P. aeruginosa ATCC 27853 it was > 256 µg/mL; against E. faecalis ATCC 29212 it was 128 µg/mL (≈ 294 µM); with E. coli ATCC 25925, 256 µg/mL (≈ 588 µM). Besides, it took 7.9 ± 0.4 µM to reach half-maximal inhibition in data set [2] (IC50). The same compound showed an IC90 in [2] of 17.2 ± 1.2 µM. In addition, the “Hypochromic effect H/%, ctDNA (from experimental data)” value in the data set on calf thymus ctDNA (UV–Vis titration, PBS, pH 7, footnote e: calculated from experimental data) is recorded as 25.7 ^e %. In addition, the “log Ks” value in data set [5] (pH 7, n fixed, per base) came to 6.21. Also, in data set [6] (pH 7, changes too small for accurate calculation, compound 14.8 µM), the binding entry is listed as “weak”. Further, the “Hypochromic effect H/%, polyA-polyU (from experimental data)” value in the data set with polyA-polyU [7] (footnote e: calculated from experimental data) is on record as 32.7 ^e %. For the same compound, the “log Ks, polyC-polyG” value at polyC-polyG was found to be 6.21.
